Test results from the supplement of paper PMC10307832.

Columns and labels:
Experiment in all cases: relative viability (nuclei count vs DMSO), 5 days (fraction); higher = more cells survive
Crenolanib + Foretinib = compound: CC1(COc2ccc3c(c2)ncn3-c2ccc3cccc(N4CCC(N)CC4)c3n2)COC1 [Crenolanib] + COc1cc2c(Oc3ccc(NC(=O)C4(C(=O)Nc5ccc(F)cc5)CC4)cc3F)ccnc2cc1OCCCN1CCOCC1 [Foretinib] (partner 0.25 µM)
Outline: (§1)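 Dosing by pin tool came one day after lung cancer cell lines were seeded in 1536-well plates, using either one drug or a fixed anchor-drug dose plus five library-drug doses (not always all listed) in √10 steps. After 5 days, nuclei were counted on 4× images. Relative viability is treated-well nuclei count divided by vehicle-well nuclei count, and values are medians of duplicate plates.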

Crenolanib + Decitabine = compound: CC1(COc2ccc3c(c2)ncn3-c2ccc3cccc(N4CCC(N)CC4)c3n2)COC1 [Crenolanib] + Nc1ncn([C@H]2C[C@H](O)[C@@H](CO)O2)c(=O)n1 [Decitabine] (partner 2 µM)
Outline: as §1

Tivantinib + Navitoclax = compound: O=C1NC(=O)[C@@H](c2cn3c4c(cccc24)CCC3)[C@@H]1c1c[nH]c2ccccc12 [Tivantinib] + CC1(C)CCC(c2ccc(Cl)cc2)=C(CN2CCN(c3ccc(C(=O)NS(=O)(=O)c4ccc(N[C@H](CCN5CCOCC5)CSc5ccccc5)c(S(=O)(=O)C(F)(F)F)c4)cc3)CC2)C1 [Navitoclax] (partner 0.5 µM)
Outline: as §1

Tivantinib + Decitabine = compound: O=C1NC(=O)[C@@H](c2cn3c4c(cccc24)CCC3)[C@@H]1c1c[nH]c2ccccc12 [Tivantinib] + Nc1ncn([C@H]2C[C@H](O)[C@@H](CO)O2)c(=O)n1 [Decitabine] (partner 2 µM)
Outline: as §1

Cell Line | relative viability (Crenolanib + Foretinib; first compound 0.01 µM) | relative viability (Crenolanib + Foretinib; first compound 0.03162 µM) | relative viability (Crenolanib + Foretinib; first compound 0.1 µM) | relative viability (Crenolanib + Foretinib; first compound 0.3162 µM) | relative viability (Crenolanib + Foretinib; first compound 1 µM) | relative viability (Crenolanib + Decitabine; first compound 0.01 µM) | relative viability (Crenolanib + Decitabine; first compound 0.03162 µM) | relative viability (Crenolanib + Decitabine; first compound 0.1 µM) | relative viability (Crenolanib + Decitabine; first compound 0.3162 µM) | relative viability (Crenolanib + Decitabine; first compound 1 µM) | relative viability (Tivantinib + Navitoclax; first compound 0.01 µM) | relative viability (Tivantinib + Navitoclax; first compound 0.03162 µM) | relative viability (Tivantinib + Navitoclax; first compound 0.1 µM) | relative viability (Tivantinib + Navitoclax; first compound 0.3162 µM) | relative viability (Tivantinib + Decitabine; first compound 0.01 µM) | relative viability (Tivantinib + Decitabine; first compound 0.03162 µM) | relative viability (Tivantinib + Decitabine; first compound 0.1 µM) | relative viability (Tivantinib + Decitabine; first compound 0.3162 µM)
NCI-H322M | 0.951 | 1.07 | 0.973 | 0.96 | 0.98 | 0.863 | 0.748 | 0.663 | 0.73 | 0.71 | 1.11 | 1.06 | 1.14 | 1.16 | 0.615 | 0.703 | 0.715 | –
NCI-H441 | 1.13 | 1.05 | 0.775 | 0.951 | 0.958 | 0.259 | 0.276 | 0.277 | 0.251 | 0.243 | 0.737 | 0.869 | – | 0.439 | 0.22 | 0.261 | 0.139 | 0.239
NCI-H460 | 1.02 | 1.06 | 0.938 | 1 | 0.99 | 0.261 | 0.475 | 0.442 | 0.682 | 0.555 | 1.06 | 1.02 | 0.988 | 1.13 | 0.496 | 0.499 | 0.427 | 0.458
NCI-H520 | 0.671 | 0.89 | 0.651 | 0.724 | 0.746 | 0.54 | 0.492 | 0.451 | 0.575 | 0.481 | 1.12 | 1.17 | 0.995 | 1.1 | 0.462 | 0.454 | 0.46 | 0.436
NCI-H596 | 0.774 | 0.89 | 0.752 | 0.78 | 1.03 | 1.09 | 0.991 | 0.933 | 1.05 | 1.03 | 1.07 | 1.02 | 0.948 | 0.73 | 1.12 | 1.07 | 1.01 | 1.12
NCI-H647 | 1.25 | 1.09 | 1.11 | 1.23 | 1.28 | 0.376 | 0.401 | 0.362 | 0.502 | 0.346 | 1.06 | 1.27 | 1.07 | 0.758 | 0.437 | 0.305 | 0.381 | 0.357
NCI-H727 | 0.915 | 0.975 | 0.835 | 0.893 | 0.809 | 0.872 | 0.851 | 0.877 | 0.997 | 0.904 | 0.412 | 0.432 | 0.311 | – | 0.748 | 0.924 | 0.882 | –
NCI-H838 | 1.11 | 1.03 | 1.04 | 1.16 | 1.06 | 0.482 | 0.463 | 0.45 | 0.466 | 0.418 | 1.06 | 1.13 | 1.06 | 1.2 | 0.446 | 0.48 | 0.428 | 0.442
NCI-H1355 | 1.02 | 1 | 0.94 | 1.07 | 0.906 | 0.374 | 0.335 | 0.303 | 0.407 | 0.328 | 0.879 | 0.966 | 0.949 | 0.808 | 0.377 | 0.316 | 0.342 | 0.381
NCI-H1395 | 1.03 | 0.97 | 1.01 | 1.07 | 0.936 | 0.754 | 0.674 | 0.739 | 0.695 | 0.669 | 1.48 | 1.17 | 1.19 | 1.58 | 0.736 | 0.665 | 0.845 | 0.713
NCI-H1437 | 1.28 | 1.28 | 1.31 | 1.31 | 1.14 | 0.634 | 0.551 | 0.527 | 0.562 | 0.512 | 1.1 | 1.11 | 0.968 | 1.1 | 0.57 | 0.568 | 0.497 | 0.545
NCI-H1650 | 1.34 | 1.27 | 1.2 | 1.23 | 0.945 | 0.373 | 0.377 | 0.455 | 0.322 | 0.343 | 1.33 | 1.33 | 0.987 | 0.929 | 0.406 | 0.389 | 0.416 | 0.413
NCI-H1651 | 0.884 | 0.967 | 0.883 | 0.94 | 0.787 | 0.678 | 0.583 | 0.592 | 0.589 | 0.638 | 1.02 | 0.928 | 1.03 | 0.938 | 0.592 | 0.659 | 0.608 | 0.583
NCI-H1666 | 0.987 | 0.897 | 0.886 | 1.02 | 0.974 | 0.757 | 0.576 | 0.663 | 0.692 | 0.806 | 0.94 | 0.79 | 0.961 | 0.568 | 0.745 | 0.684 | 0.748 | 0.747
NCI-H1734 | 1.02 | 0.773 | 0.859 | 0.925 | 0.876 | 0.55 | 0.549 | 0.507 | 0.591 | 0.507 | 0.849 | 0.86 | 0.802 | 0.896 | 0.532 | 0.487 | 0.506 | 0.427
NCI-H1755 | 0.944 | 0.905 | 0.889 | 0.937 | 0.908 | 0.678 | 0.74 | 0.743 | 0.743 | 0.697 | 1.02 | 0.954 | 0.934 | 1.03 | 0.727 | 0.67 | 0.725 | 0.765
NCI-H1793 | 0.669 | 0.895 | 0.64 | 0.608 | 0.689 | 0.649 | 0.495 | 0.537 | 0.549 | 0.475 | 0.43 | 0.417 | 0.481 | – | 0.502 | 0.497 | 0.495 | 0.404
NCI-H1915 | 1.09 | 1.09 | 1.04 | 1.1 | 0.992 | 0.26 | 0.275 | 0.275 | 0.247 | 0.264 | 0.789 | 0.796 | 0.771 | 0.798 | 0.279 | 0.248 | 0.263 | 0.254
